Reference: ChEMBL document CHEMBL5523737, “Novel Jatrophane Diterpenoids from Euphorbia esula Promotes Lipid Clearance by Transcriptional Regulation of PCSK9” (J Med Chem, 2024)
The source made the active and inactive calls. The rule behind the calls is not given here.

Columns and labels:
[1] = target: Proprotein convertase subtilisin/kexin type 9 (Homo sapiens) (UniProt Q8NBP7); assay: Inhibition of PCSK9 transcription in human HepG2 cells at 5 uM by AlphaLISA method; type: cell-based
[2] = Cytotoxicity against human HepG2 cells assessed as cell viability at 20 uM after 24 hrs by CCK8 assay; type: toxicity, cell-based; details: read-out: Activity
HepG2 [3] = assay: Induction of LDL uptake in human HepG2 cells incubated for 3 hrs under dark condition by DiI-LDL DMEM staining based fluorescence microplate reader assay; type: functional, cell-based
[4] = target: Proprotein convertase subtilisin/kexin type 9 (Homo sapiens) (UniProt Q8NBP7); assay: Inhibition of PCSK9 transcription in human HepG2 cells by AlphaLISA method; type: cell-based
HepG2 [5] = assay: Induction of LDL uptake in HNF1alpha knockdown human HepG2 cells at 5 uM incubated for 3 hrs under dark condition by DiI-LDL DMEM staining based fluorescence microplate reader assay; type: functional, cell-based
[6] = target: Proprotein convertase subtilisin/kexin type 9 (Homo sapiens) (UniProt Q8NBP7); assay: Inhibition of PCSK9 (unknown origin) promoter activity expressed in HEK293 cells co-transfected with SV40 at 5 to 10 uM incubated for 24 hrs by dual luciferase assay; type: cell-based; details: dose 5-10 µM

Structure (SMILES) | inhibition [1] [%] | inhibition [4] | inhibition [6] | viability at 24 h, 20 µM [2] [%] | Activity (HepG2 [3]) | Activity (HepG2 [5])
C=C1[C@@H](OC(C)=O)[C@H]2[C@@H](OC(C)=O)[C@](C)(OC(C)=O)C[C@]2(OC(C)=O)C(=O)[C@H](C)/C=C/C(C)(C)C(=O)[C@@H](OC(C)=O)[C@H]1OC(=O)C(C)C | 22.3 | Dose-Dependent Effect |  | > 95 | Active | 
C=C1[C@@H](OC(C)=O)[C@H]2[C@@H](OC(C)=O)[C@](C)(OC(C)=O)C[C@]2(OC(C)=O)C(=O)[C@H](C)/C=C/C(C)(C)C(=O)[C@@H](OC(=O)C(C)C)[C@H]1OC(=O)C(C)C | 30.4 | Dose-Dependent Effect |  | > 95 | Active | 
C=C1[C@@H](OC(C)=O)[C@H]2[C@@H](OC(C)=O)[C@@H](C)C[C@]2(OC(C)=O)C(=O)[C@H](C)/C=C/C(C)(C)[C@H](OC(C)=O)[C@@H](OC(C)=O)[C@H]1OC(C)=O | 0.1 |  |  |  |  | 
C=C1[C@@H](OC(C)=O)[C@H]2[C@@H](OC(C)=O)[C@](C)(OC(C)=O)C[C@]2(OC(C)=O)C(=O)[C@H](C)[C@]2(C)O[C@H]2C(C)(C)[C@H](OC(C)=O)[C@@H](OC(=O)c2ccccc2)[C@H]1OC(=O)C(C)C | 0.7 |  |  |  |  | 

Second part, led by results:

inhibition [1] [%] | inhibition [4] | inhibition [6] | Structure (SMILES) | viability at 24 h, 20 µM [2] [%] | Activity (HepG2 [3]) | Activity (HepG2 [5])
< 1 |  |  | C=C1[C@@H](OC(C)=O)[C@H]2[C@@H](OC(C)=O)[C@@H](C)C[C@]2(OC(C)=O)C(=O)[C@H](C)/C=C/C(C)(C)C(=O)[C@@H](OC(C)=O)[C@H]1OC(C)=O |  |  | 
56.1 | Dose-Dependent Effect | Active | C=C1[C@@H](OC(C)=O)[C@H]2[C@@H](OC(=O)[C@@H](C)CC)[C@@H](C)C[C@]2(OC(C)=O)C(=O)[C@H](C)/C=C/C(C)(C)[C@H](OC(C)=O)[C@@H](OC(C)=O)[C@H]1OC(C)=O | > 95 | Active | Active
1.2 |  |  | C=C1[C@@H](OC(C)=O)[C@H]2[C@@H](OC(C)=O)[C@](C)(OC(C)=O)C[C@]2(OC(C)=O)C(=O)[C@H](C)[C@]2(C)O[C@H]2C(C)(C)[C@H](OC(C)=O)[C@@H](OC(C)=O)[C@H]1OC(=O)C(C)C |  |  | 
